The values that follow come from PubChem BioAssay (NCI).

Holding throughout (experiment): growth of human tumour cells (NCI), 48 h
For experiment [1], the system named is MALME-3M melanoma.
For experiment [2], the system named is HT29 colon.
Experiment [3] deals with RXF 393 renal.
For experiment [4], the system named is EKVX NSCLC.
For experiment [5], the system named is T-47D breast.
Experiment [6] has as its system HL-60(TB) leukemia.
The test system of experiment [7] is DU-145 prostate.
For experiment [8], the system named is SN12C renal.
Experiment [9] concerns CAKI-1 renal.
Experiment [10] deals with MOLT-4 leukemia.
For experiment [11], the system named is NCI/ADR-RES ovarian.

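Method: 48-hour compound exposure of cells in 96-well plates, five concentrations, linear interpolation of endpoints. TGI: total growth inhibition.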

As to `CC(=O)Nc1nc(C)c(S(=O)(=O)NC(=O)N2c3ccccc3CCc3ccccc32)s1`, the TGI in [1], in experiment [2], in [3], in experiment [4], in experiment [5] and in experiment [6] was more than 100 µM in each case. Further, the TGI in experiment [7], in experiment [8], in experiment [9], in experiment [10] and in experiment [11] was more than 100 µM each time.

With `COC(=O)NC(Nc1ccc(C)cc1)(C(F)(F)F)C(F)(F)F`, the TGI is more than 100 µM in [1]; more than 100 µM in experiment [2]; 93.9 µM in experiment [3]; more than 100 µM in experiment [4]; more than 100 µM in [5]; more than 100 µM in experiment [6]. Moreover, the TGI in experiment [7], in experiment [8], in experiment [9], in experiment [10] and in experiment [11] was more than 100 µM in each case.

Turning to `O=C1Sc2cc3ccccc3cc2C(=O)Sc2cc3ccccc3cc21`, the TGI was more than 93.5 µM in [1]; more than 90.5 µM in experiment [2]; 35.7 µM in experiment [3]; more than 100 µM in experiment [4]; more than 75 µM in experiment [5]; 27.1 µM in experiment [6]. For the same molecule, the TGI was more than 100 µM in [7]; 75.7 µM in experiment [8]; more than 90.1 µM in [9]; 76.8 µM in [10]; more than 92.3 µM in [11].

For `CCOC(=O)c1nc2ccccc2nc1Nc1ccc(F)cc1`, the TGI is more than 100 µM in [1]; more than 100 µM in experiment [2]; 26.7 µM in experiment [3]; more than 68.7 µM in [4]; more than 86.1 µM in experiment [5]; more than 100 µM in [6]. In addition, the TGI in experiment [7], in experiment [8], in [9], in experiment [10] and in [11] was more than 100 µM in each case.

Take `Cc1cn(C2CC(SCCO)C(CO)O2)c(=O)[nH]c1=O` (stereo not drawn): the TGI in experiment [1], in experiment [2], in [3], in experiment [4], in experiment [5] and in experiment [6] was more than 100 µM in each case. For the same molecule, the TGI in experiment [7], in experiment [8], in [9], in experiment [10] and in experiment [11] was more than 100 µM throughout.

In the case of `CN(c1ccc(Cl)cc1)S(=O)(=O)c1ccccc1`, the TGI is more than 100 µM in experiment [1]; more than 100 µM in experiment [2]; 62.3 µM in experiment [3]; more than 100 µM in [4]; more than 100 µM in experiment [5]; more than 100 µM in experiment [6]. Further, the TGI in [7], in experiment [8], in [9], in experiment [10] and in [11] was more than 100 µM throughout.

Consider `O=C1NC(=S)N/C1=C\c1ccc(Sc2ccccc2C(=O)O)s1`, for which the TGI in experiment [1], in [2], in [3], in [4], in experiment [5] and in experiment [6] was more than 100 µM throughout. The TGI in experiment [7], in [8], in experiment [9], in experiment [10] and in experiment [11] was more than 100 µM each time.

`CC(C)CCCC(C)[C@H]1CC[C@H]2NCCCC[C@]12C` (stereo partly drawn): the TGI in experiment [1] stood at 16.4 µM; in [2], 5.54 µM; in [3], 4.62 µM; in experiment [4], 5.23 µM; in experiment [5], 8.93 µM; in experiment [6], 5.91 µM. Besides, the TGI in [7] turned out to be 25.6 µM; in experiment [8] it was 18.7 µM; in [9], 22.8 µM; in experiment [10], 6.32 µM; in experiment [11], 20.7 µM.

For the molecule `COCCN(C(=O)c1ccccc1)C1CCC(=O)c2[nH]c3ccccc3c21` (stereo not drawn), the TGI came to 17.7 µM in experiment [1]; 24.3 µM in [2]; 15.2 µM in [3]; 25.7 µM in experiment [4]; 34.4 µM in [5]; 58.8 µM in experiment [6]. The TGI in experiment [7] came out at 27.9 µM; in experiment [8] it was 21.1 µM; in experiment [9], 10.9 µM; in experiment [10], 26.9 µM; in [11] it was 53.6 µM.

`CCCC(CC)c1cc(O)c(O)cc1C(CC)CCC` (stereo not drawn): the TGI in experiment [1], in experiment [2], in experiment [3], in experiment [4], in experiment [5] and in experiment [6] was more than 10 µM throughout. Further, the TGI in experiment [7], in experiment [8], in [9], in [10] and in [11] was more than 10 µM in each case.

Consider `CC(=O)NCC1OC2COC(c3ccccc3)OC2C2N=C(c3ccccc3)OC12` (stereo not drawn), for which the TGI is more than 100 µM in experiment [1]; more than 100 µM in experiment [2]; more than 100 µM in experiment [3]; more than 100 µM in experiment [4]; 57.7 µM in experiment [5]; 52.9 µM in experiment [6]. Also, the TGI in experiment [7], in [8], in experiment [9], in [10] and in [11] was more than 100 µM each time.

As for `Cc1ccc(C2(N3CCOCC3)OC(C)(C)c3cccc4cccc2c34)cc1` (stereo not drawn), the TGI in [1] is 36.9 µM; in [2], 31.8 µM; in [3] it was 31.5 µM; in experiment [4], 29.2 µM; in experiment [5], 60.4 µM; in experiment [6], more than 100 µM. Further, the TGI in [7] was 37 µM; in [8] it was 32.5 µM; in experiment [9], 50.1 µM; in [10], more than 100 µM; in experiment [11] it was 31.2 µM.

Regarding `CCCCN(CCCC)C1=Nc2ccccc2-n2c(nnc2C(=O)OCC)C1`, the TGI in experiment [1] was 82.1 µM; in [2], more than 100 µM; in experiment [3] it was 77.4 µM; in [4], more than 100 µM; in [5] it was more than 100 µM; in [6], 40.9 µM. The TGI in experiment [7] is more than 100 µM; in experiment [8], more than 100 µM; in [9], more than 100 µM; in experiment [10] it was 84.1 µM; in experiment [11], more than 100 µM.
